Assay results as given in US20110038885A1, “CHEMOKINE ANALOGS” (priority 2007, published 2011).
Numbered stars: 1 amine (or outer) side, 2 acyl side, 3 side chain; on linkers, the order of the positions; unused ones are H or OH. Bridge positions count the residues as written; N and C are the ends. Square brackets hold non-standard residues; d marks the D form. Peptide text beside a SMILES is read from it. * marks the point of attachment. Glutaryl = O=C(CCCC(=O)[*:2])[*:1]; Suc = O=C(CCC(=O)[*:2])[*:1]; Isobutyryl = CC(C)C(=O)*; Orn = NCCC[C@H](N)C(=O)O; Dab = NCC[C@H](N)C(=O)O; Dap = NC[C@H](N)C(=O)O

Test system: MCP-1
Experiment: In vitro chemotaxis (trans-well migration) v MCP-1
Format: cell-based, human
Outline: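 Human THP-1 monocytes (10^4-10^6) with agent at varying concentrations in upper trans-well chamber; IL-8 or MCP-1 in lower chamber at a migration-inducing concentration, 37° C for e.g. 4 hours. Migrated cells quantified by MTT (595 nm) against a THP-1 standard curve; cytotoxicity and non-chemokine chemoattractant controls run.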

CC[C@H](C)[C@@H]1NC(=O)[C@H](Cc2c[nH]c3ccccc23)NC(=O)[C@H](CCCCN)NC(=O)[C@@H](NC(=O)C(C)C)CCCNC(=O)CC[C@@H](C(N)=O)NC(=O)[C@H](CCC(N)=O)NC1=O [Example 108, Isobutyryl-c(Orn-Lys-Trp-Ile-Gln-Glu)-NH2] (Isobutyryl-[Orn]KWIQE-NH2; lactam 1-6)
EC50: 8 nM

CC[C@H](C)[C@@H]1NC(=O)[C@H](Cc2c[nH]c3ccccc23)NC(=O)[C@H](CCCCN)NC(=O)[C@@H](NC(=O)C(C)C)CCCCNC(=O)CC[C@@H](C(N)=O)NC(=O)[C@H](CCC(N)=O)NC1=O [Example 109, Isobutyryl-c(Lys-Lys-Trp-Ile-Gln-Glu)-NH2] (Isobutyryl-KKWIQE-NH2; lactam 1-6)
EC50: 8 nM

CC[C@H](C)[C@@H]1NC(=O)[C@H](Cc2c[nH]c3ccccc23)NC(=O)[C@H](CCCCN)NC(=O)[C@@H](NC(C)=O)CC(=O)NC[C@@H](C(N)=O)NC(=O)[C@H](CCC(N)=O)NC1=O [Example 110, Ac-c(Asp-Lys-Trp-Ile-Gln-Dap)-NH2] (Ac-DKWIQ[Dap]-NH2; lactam 1-6)
EC50: 8 nM

CC[C@H](C)[C@@H]1NC(=O)[C@H](Cc2c[nH]c3ccccc23)NC(=O)[C@H](CCCCN)NC(=O)[C@@H](NC(C)=O)CC(=O)NCC[C@@H](C(N)=O)NC(=O)[C@H](CCC(N)=O)NC1=O [Example 111, Ac-c(Asp-Lys-Trp-Ile-Gln-Dab)-NH2] (Ac-DKWIQ[Dab]-NH2; lactam 1-6)
EC50: 4 nM

CC[C@H](C)[C@@H]1NC(=O)[C@H](Cc2c[nH]c3ccccc23)NC(=O)[C@H](CCCCN)NC(=O)[C@@H](NC(C)=O)CC(=O)NCCC[C@@H](C(N)=O)NC(=O)[C@H](CCC(N)=O)NC1=O [Example 112, Ac-c(Asp-Lys-Trp-Ile-Gln-Orn)-NH2] (Ac-DKWIQ[Orn]-NH2; lactam 1-6)
EC50: 6 nM

CC[C@H](C)[C@@H]1NC(=O)[C@H](Cc2c[nH]c3ccccc23)NC(=O)[C@H](CCCCN)NC(=O)[C@@H](NC(C)=O)CCC(=O)NC[C@@H](C(N)=O)NC(=O)[C@H](CCC(N)=O)NC1=O [Example 113, Ac-c(Glu-Lys-Trp-Ile-Gln-Dap)-NH2] (Ac-EKWIQ[Dap]-NH2; lactam 1-6)
EC50: 30 nM

CC[C@H](C)[C@@H]1NC(=O)[C@H](Cc2c[nH]c3ccccc23)NC(=O)[C@H](CCCCN)NC(=O)[C@@H](NC(C)=O)CCC(=O)NCC[C@@H](C(N)=O)NC(=O)[C@H](CCC(N)=O)NC1=O [Example 114, Ac-c(Glu-Lys-Trp-Ile-Gln-Dab)-NH2] (Ac-EKWIQ[Dab]-NH2; lactam 1-6)
EC50: 8 nM

CC[C@H](C)[C@@H]1NC(=O)[C@H](Cc2c[nH]c3ccccc23)NC(=O)[C@H](CCCCN)NC(=O)[C@@H](NC(C)=O)CCC(=O)NCCC[C@@H](C(N)=O)NC(=O)[C@H](CCC(N)=O)NC1=O [Example 115, Ac-c(Glu-Lys-Trp-Ile-Gln-Orn)-NH2] (Ac-EKWIQ[Orn]-NH2; lactam 1-6)
EC50: 5 nM

CC[C@H](C)[C@@H]1NC(=O)[C@H](Cc2c[nH]c3ccccc23)NC(=O)[C@H](CCCCN)NC(=O)[C@@H](NC(C)=O)CCC(=O)NCCCC[C@@H](C(N)=O)NC(=O)[C@H](CCC(N)=O)NC1=O [Example 116, Ac-c(Glu-Lys-Trp-Ile-Gln-Lys)-NH2] (Ac-EKWIQK-NH2; lactam 1-6)
EC50: 8 nM

CC[C@H](C)[C@@H]1NC(=O)[C@H](Cc2c[nH]c3ccccc23)NC(=O)[C@H](CCCCN)NC(=O)[C@@H](NC(C)=O)CNC(=O)C[C@@H](C(N)=O)NC(=O)[C@H](CCC(N)=O)NC1=O [Example 117, Ac-c(Dap-Lys-Trp-Ile-Gln-Asp)-NH2] (Ac-[Dap]KWIQD-NH2; lactam 1-6)
EC50: 5 nM

CC[C@H](C)[C@@H]1NC(=O)[C@H](Cc2c[nH]c3ccccc23)NC(=O)[C@H](CCCCN)NC(=O)[C@@H](NC(C)=O)CCNC(=O)C[C@@H](C(N)=O)NC(=O)[C@H](CCC(N)=O)NC1=O [Example 118, Ac-c(Dab-Lys-Trp-Ile-Gln-Asp)-NH2] (Ac-[Dab]KWIQD-NH2; lactam 1-6)
EC50: 8 nM

CC[C@H](C)[C@@H]1NC(=O)[C@H](Cc2c[nH]c3ccccc23)NC(=O)[C@H](CCCCN)NC(=O)[C@@H](NC(C)=O)CCCNC(=O)C[C@@H](C(N)=O)NC(=O)[C@H](CCC(N)=O)NC1=O [Example 119, Ac-c(Orn-Lys-Trp-Ile-Gln-Asp)-NH2] (Ac-[Orn]KWIQD-NH2; lactam 1-6)
EC50: 8 nM

CC[C@H](C)[C@@H]1NC(=O)[C@H](Cc2c[nH]c3ccccc23)NC(=O)[C@H](CCCCN)NC(=O)[C@@H](NC(C)=O)CCCCNC(=O)C[C@@H](C(N)=O)NC(=O)[C@H](CCC(N)=O)NC1=O [Example 120, Ac-c(Lys-Lys-Trp-Ile-Gln-Asp)-NH2] (Ac-KKWIQD-NH2; lactam 1-6)
EC50: 8 nM

CC[C@H](C)[C@@H]1NC(=O)[C@H](Cc2c[nH]c3ccccc23)NC(=O)[C@H](CCCCN)NC(=O)[C@@H](NC(C)=O)CNC(=O)CC[C@@H](C(N)=O)NC(=O)[C@H](CCC(N)=O)NC1=O [Example 121, Ac-c(Dap-Lys-Trp-Ile-Gln-Glu)-NH2] (Ac-[Dap]KWIQE-NH2; lactam 1-6)
EC50: 10 nM

CC[C@H](C)[C@@H]1NC(=O)[C@H](Cc2c[nH]c3ccccc23)NC(=O)[C@H](CCCCN)NC(=O)[C@@H](NC(C)=O)CCNC(=O)CC[C@@H](C(N)=O)NC(=O)[C@H](CCC(N)=O)NC1=O [Example 122, Ac-c(Dab-Lys-Trp-Ile-Gln-Glu)-NH2] (Ac-[Dab]KWIQE-NH2; lactam 1-6)
EC50: 10 nM

CC[C@H](C)[C@@H]1NC(=O)[C@H](Cc2c[nH]c3ccccc23)NC(=O)[C@H](CCCCN)NC(=O)[C@@H](NC(C)=O)CCCNC(=O)CC[C@@H](C(N)=O)NC(=O)[C@H](CCC(N)=O)NC1=O [Example 123, Ac-c(Orn-Lys-Trp-Ile-Gln-Glu)-NH2] (Ac-[Orn]KWIQE-NH2; lactam 1-6)
EC50: 7 nM

CC[C@H](C)[C@@H]1NC(=O)[C@H](Cc2c[nH]c3ccccc23)NC(=O)[C@H](CCCCN)NC(=O)[C@@H](NC(C)=O)CCCCNC(=O)CC[C@@H](C(N)=O)NC(=O)[C@H](CCC(N)=O)NC1=O [Example 124, Ac-c(Lys-Lys-Trp-Ile-Gln-Glu)-NH2] (Ac-KKWIQE-NH2; lactam 1-6)
EC50: 8 nM

CC[C@H](C)[C@@H]1NC(=O)[C@H](Cc2c[nH]c3ccccc23)NC(=O)[C@H](CCCCN)NC(=O)CCC(=O)NC[C@@H](C(N)=O)NC(=O)[C@H](CCC(N)=O)NC1=O [Example 125, c(Succinyl-Lys-Trp-Ile-Gln-Dap)-NH2] (KWIQ[Dap]-NH2; linker N-5 via Suc)
EC50: 15 nM

CC[C@H](C)[C@@H]1NC(=O)[C@H](Cc2c[nH]c3ccccc23)NC(=O)[C@H](CCCCN)NC(=O)CCC(=O)NCC[C@@H](C(N)=O)NC(=O)[C@H](CCC(N)=O)NC1=O [Example 126, c(Succinyl-Lys-Trp-Ile-Gln-Dab)-NH2] (KWIQ[Dab]-NH2; linker N-5 via Suc)
EC50: 6 nM

CC[C@H](C)[C@@H]1NC(=O)[C@H](Cc2c[nH]c3ccccc23)NC(=O)[C@H](CCCCN)NC(=O)CCCC(=O)NC[C@@H](C(N)=O)NC(=O)[C@H](CCC(N)=O)NC1=O [Example 127, c(Glutaryl-Lys-Trp-Ile-Gln-Dap)-NH2NH2] (KWIQ[Dap]-NH2; linker N-5 via Glutaryl)
EC50: 7 nM

CC[C@H](C)[C@@H]1NC(=O)[C@H](Cc2c[nH]c3ccccc23)NC(=O)[C@H](CCCCN)NC(=O)CCCC(=O)NCC[C@@H](C(N)=O)NC(=O)[C@H](CCC(N)=O)NC1=O [Example 128, c(Glutaryl-Lys-Trp-Ile-Gln-Dab)-NH2] (KWIQ[Dab]-NH2; linker N-5 via Glutaryl)
EC50: 10 nM
